According to patent US9801373B2, “Compounds for alleviating phosphate starvation symptoms in plants” (Commissariat a l'Energie Atomique et aux Energies …, priority 2012, dated 2017):

Experiments:
Assay type in all cases: in vivo, Arabidopsis thaliana
[1] = tested on: lpr1, lpr2 and lpi mutants; assay: Primary root growth of mutants with reduced root sensitivity to Pi starvation; conditions: 7-days-old plants, PTN1 40 μM, FIG. 8
Source text: (§1) A “chemical genetics” approach has been carried out to isolate compounds that inhibit the phosphate (Pi) response in Arabidopsis thaliana. Compounds were screened for their ability to inhibit the expression of a phosphate starvation marker, namely the high affinity Pi transporter PHT1,4 gene. For the screening, the A. thaliana pht1;4-1 line (ecotype Wassilewskija) was chosen (Misson et al., 2004). It contains a T-DNA construct inserted into Pht1;4 gene creating a transcriptional fusion with a GUS reporter gene. For phenotypic analyses, A. thaliana Columbia and various lines derived from this ecotype were used. They are either transgenic lines expressing reporter gene as cycB1::GUS (Colón Carmona et al., 1999), MGD3::LUC, PHT1;4::LUC, At1g73010::LUC or various mutants affecting root response to low Pi such as: pdr2 (Ticconi et al., 2004), lpr1, lpr2 (Svistoonoff et al., 2007), lpi1, lpi2 and lpi3 (Sanchez-Calderon et al., 2006).
In the Pi deficient medium, NaCl (0.5 mM) was used to replace the equivalent amount of sodium provided by NaH2PO4. For controls of the effects of the compounds, 1% of DMSO (Dimethyl sulfoxid, SIGMA, 472301), solvent for the tested compounds, was added. […] Root architecture and aerial part area were quantified using program ImageJ.

wild-type (WT) seedlings = assay: Primary root growth of wild-type seedlings; conditions: for activity of PTN1 analogues (inhibitor activity of PHT1;4 expression and effect on the growth): WT seedlings, FIG. 6; for concentration at which active on primary root growth: −Pi
Method: (§2) In the Pi deficient medium, NaCl (0.5 mM) was used to replace the equivalent amount of sodium provided by NaH2PO4. For controls of the effects of the compounds, 1% of DMSO (Dimethyl sulfoxid, SIGMA, 472301), solvent for the tested compounds, was added. After 2 days at 4° C., the plates were placed in a vertical position and plants were grown in a culture chamber under a 16 h light/8 h dark regime (24/21° C., 150 μE m^−2s^−1). For 4 weeks culture, large plates (24×24 cm) were placed in a horizontal position. Root architecture and aerial part area were quantified using program ImageJ.

lpr1 mutant = assay: Shoot growth of lpr1 mutant; conditions: −Pi, 28-days-old plants
Method: as §2

PHT1 genes (PHT1;4) = assay: qPCR of PHT1 transcript level on root mRNA; conditions: qPCR on root mRNA, FIG. 2 (B)
Method: Plant RNA was extracted with the RNeasy kit (QIAGEN, France). For transcriptome data, RNA were analysed by the CATMA technology (Complete Arabidopsis Transcriptome Microarray). For qPCR, poly(dT) cDNA were prepared from 500 ng total RNA with Superscript III reverse transcriptase (Invitrogen, France) and analysed on a LightCycler 480 apparatus (Roche Diagnostics, France) with the SYBR Green I Master kit (Roche Diagnostics, France) according to the manufacturer's instructions. Targets were quantified with specific primer pairs designed with Primer3 website (http://frodo.wi.mit.edu/primer3/) (see Table II below). Biological triplicates were performed for all experiments. Expression levels were normalized using At2g16600, At3g04120, At1g35160 and At1g32050 genes.

PHT1;4 expression = assay: Chemical genetics screen, GUS staining of pht1;4-1 reporter line
Source text: as §1
For the screening, the LATCA collection of 3600 biologically active compounds (Zhao et al., 2007) was used at a final concentration of 25 μM in 1% DMSO. Four to five Arabidopsis seeds of pht1;4-1 (Misson et al., 2004) reporter line were sown in 96-well plates containing 100 μL liquid MS/10 medium with 500 μM of Pi at pH 5.7. After 2 days at 4° C., plants were grown for five days in a culture chamber under a 16 h light/8 h dark regime (24/21° C., 150 μE m^−2s^−1). Medium was then replaced by MS/10 with only 5 μM Pi and the tested compounds were added to the 96-well plates. […] Five days later, plantlets were analysed by GUS staining to assay the activity of the reporter gene inserted in pht1;4 gene. […] Then, plates were analysed using a MZ16 stereomicroscope (Leica microsystems, Germany).
The GUS activity was detected as previously described by Jefferson et al. (1987), using a GUS staining solution containing 50 mM sodium phosphate buffer pH 7.0; 0.01% Triton X-100, 1 mM K3Fe(CN)6, 1 mM K4Fe(CN)6, 1 mg/ml 5-bromo-4-chloro-3-indolyl B-D-glucuronide (X-Gluc). […]

Row | SMILES | primary root growth of lpr1 or lpi mutants [1] | primary root growth at various external Pi concentrations (15-250 uM) (wild-type (WT) seedlings; 10 uM, 5 days on Pi rich medium then 24 hours on tested conditions, FIG. 7 (D)) | activity of PTN1 analogues (inhibitor activity of PHT1;4 expression and effect on the growth) (wild-type (WT) seedlings) | concentration at which active on primary root growth (wild-type (WT) seedlings; FIG. 7 (A)) [µM] | growth of the lpr1 rosette (lpr1 mutant) | effect on PHT1;4 transcript level (PHT1 genes (PHT1;4)) | toxicity as cause of reduced reporter gene expression (PHT1;4 expression; 25 μM, 5 days on −Pi) | primary root growth on −Pi (wild-type (WT) seedlings; WT, 7-day-old plantlets, FIG. 7 (A)) | PHT1;4 expression (analogue test) (PHT1;4 expression; 100 μM)
1 | Clc1ccc(SSc2ccc(Cl)cc2)cc1 [PTN4] | no additive effect | improved root growth until 50/75 μM of Pi | Active | 10 | +25% | – | – | – | –
2 | CS(=O)(=O)C1=C2C=CCCC2=C(C(=O)Sc2ccc(Cl)cc2)C1 [PTN2] | – | – | – | – | – | dose dependant manner | not explained by toxicity | – | –
3 | Sc1ccc(Cl)cc1 [PTN3, 4-chlorothiophenol] | – | – | Active | 100 | – | – | – | sustained also the primary root growth | repressed PHT1;4 expression
